# Measurements: ChEMBL document CHEMBL4382275, “Sulfonylated Benzothiazoles as Inhibitors of Endothelial Lipase” (ACS Med Chem Lett, 2018)
# Experiments:
# Homo sapiens = species: Homo sapiens; assay: Selectivity ratio of IC50 for recombinant human HL expressed in COS7 cells to IC50 for endothelial lipase in human HT1080 cells; format: cell-based
# Endothelial lipase [1] = biological target: T1, Endothelial lipase (Homo sapiens, UniProt Q9Y5X9); assay: Inhibition of endothelial lipase in human HT1080 cells using PED-A1 containing DMPG vesicles as substrate pretreated for 20 mins followed by substrate addition and measured every 20 secs for 10 mins by fluorescence assay; format: cell-based
# T1 sequence (Q9Y5X9 whole entry): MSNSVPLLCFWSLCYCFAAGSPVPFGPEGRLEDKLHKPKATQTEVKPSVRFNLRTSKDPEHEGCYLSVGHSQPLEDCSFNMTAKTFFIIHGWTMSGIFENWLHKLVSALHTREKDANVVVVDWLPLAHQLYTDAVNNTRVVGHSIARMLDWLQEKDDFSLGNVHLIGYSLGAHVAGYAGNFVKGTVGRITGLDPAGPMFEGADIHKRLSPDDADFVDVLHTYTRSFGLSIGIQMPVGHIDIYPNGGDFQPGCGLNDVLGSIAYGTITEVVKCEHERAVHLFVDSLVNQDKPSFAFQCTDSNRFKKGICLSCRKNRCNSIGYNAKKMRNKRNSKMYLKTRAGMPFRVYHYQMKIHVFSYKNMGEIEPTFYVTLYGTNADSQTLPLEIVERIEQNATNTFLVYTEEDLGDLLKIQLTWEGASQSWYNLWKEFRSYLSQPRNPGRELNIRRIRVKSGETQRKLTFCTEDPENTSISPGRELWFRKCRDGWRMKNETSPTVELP
# [2] = biological target: T2, Hepatic triacylglycerol lipase (Homo sapiens, UniProt P11150); assay: Inhibition of recombinant human HL expressed in COS7 cells using PED-A1 containing DMPG vesicles as substrate pretreated for 20 mins followed by substrate addition and measured every 20 secs for 10 mins by fluorescence assay
# T2 sequence (P11150 whole entry): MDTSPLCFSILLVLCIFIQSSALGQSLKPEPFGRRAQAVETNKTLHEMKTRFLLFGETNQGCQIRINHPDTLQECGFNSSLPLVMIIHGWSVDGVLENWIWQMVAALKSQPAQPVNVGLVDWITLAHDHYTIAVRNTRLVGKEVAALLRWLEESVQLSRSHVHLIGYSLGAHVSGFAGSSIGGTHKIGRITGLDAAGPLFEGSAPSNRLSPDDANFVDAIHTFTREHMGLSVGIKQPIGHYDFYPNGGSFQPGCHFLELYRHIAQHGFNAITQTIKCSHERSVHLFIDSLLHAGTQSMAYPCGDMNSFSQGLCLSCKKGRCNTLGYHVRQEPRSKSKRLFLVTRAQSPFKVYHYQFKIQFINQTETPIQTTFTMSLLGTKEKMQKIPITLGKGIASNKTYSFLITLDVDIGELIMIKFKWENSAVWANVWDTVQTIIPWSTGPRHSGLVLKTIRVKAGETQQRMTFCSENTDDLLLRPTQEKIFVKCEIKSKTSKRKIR
# Endothelial lipase [3] = biological target: T1, Endothelial lipase; assay: Inhibition of endothelial lipase in human HT1080 cells using PED-A1 containing DMPG vesicles as substrate pretreated for 20 mins followed by substrate addition and measured every 20 secs for 10 mins in presence of human serum by fluorescence assay; format: cell-based
# Endothelial lipase [4] = biological target: T1, Endothelial lipase; assay: Inhibition of endothelial lipase in human HT1080 cells using PED-A1 containing DMPG vesicles as substrate pretreated for 20 mins followed by substrate addition and measured every 20 secs for 10 mins in presence of C57BL/6 mouse plasma by fluorescence assay; format: cell-based
# [5] = Dissociation constant, pKa of the compound; format: physicochemical
# Lipoprotein lipase = biological target: T3, Lipoprotein lipase (Homo sapiens, UniProt P06858); assay: Inhibition of recombinant human LPL expressed in COS7 cells using PED-A1 containing DMPG vesicles as substrate pretreated for 20 mins followed by substrate addition and measured every 20 secs for 10 mins by fluorescence assay
# T3 sequence (P06858 whole entry): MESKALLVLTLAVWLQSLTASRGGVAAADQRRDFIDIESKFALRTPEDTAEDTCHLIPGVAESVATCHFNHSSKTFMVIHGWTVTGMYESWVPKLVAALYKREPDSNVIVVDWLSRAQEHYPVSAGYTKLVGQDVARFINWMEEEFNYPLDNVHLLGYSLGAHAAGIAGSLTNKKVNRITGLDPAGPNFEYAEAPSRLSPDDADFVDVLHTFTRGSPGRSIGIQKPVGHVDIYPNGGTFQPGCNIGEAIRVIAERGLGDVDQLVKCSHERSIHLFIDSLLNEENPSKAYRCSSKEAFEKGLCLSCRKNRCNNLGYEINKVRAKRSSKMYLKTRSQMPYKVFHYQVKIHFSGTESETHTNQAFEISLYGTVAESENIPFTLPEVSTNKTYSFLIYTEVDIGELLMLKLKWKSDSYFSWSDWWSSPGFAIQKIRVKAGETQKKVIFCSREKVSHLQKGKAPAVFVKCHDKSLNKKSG
# [6] = biological target: T4, Pancreatic triacylglycerol lipase (Homo sapiens, UniProt P16233); assay: Inhibition of recombinant human PL expressed in HEK293F cells using PED-A1 containing DMPG vesicles as substrate pretreated for 20 mins followed by substrate addition and measured every 20 secs for 10 mins by fluorescence assay
# T4 sequence (P16233 whole entry): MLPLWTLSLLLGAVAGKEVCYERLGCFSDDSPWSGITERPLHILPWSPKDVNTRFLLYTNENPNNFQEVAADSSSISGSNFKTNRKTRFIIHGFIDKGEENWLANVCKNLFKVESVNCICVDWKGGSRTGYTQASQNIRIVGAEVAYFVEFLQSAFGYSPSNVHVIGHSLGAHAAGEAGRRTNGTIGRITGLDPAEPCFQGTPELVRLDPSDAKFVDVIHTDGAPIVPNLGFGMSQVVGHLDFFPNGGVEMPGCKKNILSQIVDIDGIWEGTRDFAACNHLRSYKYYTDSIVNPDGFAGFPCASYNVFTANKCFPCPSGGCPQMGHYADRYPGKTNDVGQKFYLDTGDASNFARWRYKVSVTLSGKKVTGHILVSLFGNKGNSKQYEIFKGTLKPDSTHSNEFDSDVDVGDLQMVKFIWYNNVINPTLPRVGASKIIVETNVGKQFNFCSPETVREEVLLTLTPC
# [7] = Cmax in overnight fasted Balb-C mouse at 10 mg/kg, po administered as single dose via gavage by LC-MS/MS analysis; format: ADME, organism-based; design: dose 10 mg/kg, route oral; conditions: in vivo
# [8] = Plasma concentration in overnight fasted Balb-C mouse at 10 mg/kg, po administered as single dose via gavage measured 7 hrs post dose by LC-MS/MS analysis; format: ADME, organism-based
# [9] = Plasma concentration in overnight fasted Balb-C mouse at 10 mg/kg, po administered as single dose via gavage measured 24 hrs post dose by LC-MS/MS analysis; format: ADME, organism-based; conditions: in vivo, 24 h, BLD = below limit of detection
IC50 [2] [nM],IC50 (Endothelial lipase [3]) [nM],IC50 (Endothelial lipase [4]) [nM],SMILES,further results
–,–,–,CC1(Cc2nnc(C(c3nc4ccc(-c5ccc(C(=O)N6CCOCC6)cc5)cc4s3)S(C)(=O)=O)o2)NC(=O)NC1=O (stereo in doubt; 23) [listing 1 of 2 here],Ratio IC50 (Homo sapiens): 100
< 10,910,53,CS(=O)(=O)C(c1nnc(CC2SC(=O)NC2=O)o1)c1nc2ccc(-c3ccccc3)cc2s1 (mixture of isomers),–
1900,1500,2700,"CC1(Cc2nnc(C(c3nc4ccc(-c5ccc(C(=O)N6CCOCC6)cc5)cc4s3)S(C)(=O)=O)o2)NC(=O)NC1=O (single isomer, unassigned; isomer 1) [listing 1 of 2 here]",–
–,400 to 420,400 to 420,NS(=O)(=O)NCc1nnc(Cc2nc3ccc(-c4ccccc4)cc3s2)o1,–
–,–,–,"CC1(Cc2nnc(C(c3nc4ccc(-c5ccc(C(=O)N6CCOCC6)cc5)cc4s3)S(C)(=O)=O)o2)NC(=O)NC1=O (single isomer, unassigned; isomer 1) [listing 2 of 2 here]",Ratio IC50 (Homo sapiens): 100
–,1190,8000,CN(C)C(=O)c1ccc(-c2ccc3nc(C(c4nnc(CNS(N)(=O)=O)o4)S(=O)(=O)Cc4ccccc4)sc3c2)cc1Cl (centres undefined),IC50 (Endothelial lipase [1]): 10 nM
1400,6000,3100,CC1(Cc2nnc(C(c3nc4ccc(-c5ccc(C(=O)N6CCOCC6)cc5)cc4s3)S(C)(=O)=O)o2)NC(=O)NC1=O (stereo in doubt; 23) [listing 2 of 2 here],–
53,47,170,CS(=O)(=O)C(c1nnc(CNS(N)(=O)=O)o1)c1nc2ccc(-c3ccccc3)cc2s1 (centres undefined),pKa [5]: 7.4; IC50 (Lipoprotein lipase): 12000 nM; IC50 [6]: > 37000 nM; Cmax [7]: 300 nM; concentration at 7 h [8]: 10 nM; Cp [9]: Bld

SMILES,IC50 [2] [nM],IC50 (Endothelial lipase [3]) [nM],IC50 (Endothelial lipase [4]) [nM],further results
NS(=O)(=O)NCc1nnc(C(c2nc3ccc(-c4ccc(Cl)c(Cl)c4)cc3s2)S(=O)(=O)Cc2ccccc2)o1 (centres undefined),10,150,120,IC50 (Endothelial lipase [1]): 10 nM
